Results on eleven molecules are retold here after patent US20100048923A1, “ATR Inhibitor” (priority 2005, published 2010).

In one assay the test system is A549 cells. The assay is described as follows: G2/M checkpoint: cells containing phosphorylated histone H3 (flow cytometry) in UV-irradiated A549 cells. It counts as cell-based. As to conditions: 30 μM compound, 20 J/m^2 UV, ratio of G2/M (phospho-histone H3) cells to total, Control 1.88, UV irradiation alone 0.52. The method, then:
A549 cells were seeded as 3×10^4 cells/cm^2 in the growth medium on 10 cm dish and incubated for overnight. Then, Schizandrin B was added to the medium as final concentration of 30 μM. At 1 hour after the addition of Schizandrin B, the medium was removed, and were irradiated with 20 J/m^2 and 50 J/m^2 of UV. After the UV irradiation, and then the cells were incubated in the Schizandrin B-containing medium having the same concentration as mentioned above for 1 hour. Then, the percentage of the cells containing phosphorylated histone H3 were measured in accordance with a Measurement of the phosphorylated histone H3 as mentioned below. The FIG. 2(A) is a result of flowcytometry as obtained in the treatment with Schizandrin B. In the FIG. 2(A), the encircled portion indicates the cell group in G2/M phase, numbers as mentioned above the portion indicates the ratio of the cells in G2/M phase to the total number of cells. In addition, the FIG. 2(B) indicates a graph showing the ratio.
Ratios of the cells in G2/M phase to the total number of cells were obtained in accordance with the Embodiment 2-1, except that, in the Embodiment 2-1, 20 J/m^2 of UV were irradiated instead of 20 J/m^2 and 50 J/m^2 of UV and the compounds of the formulas (1) to (10) and Angeloyl Gomisin A of a formula (C) (final concentration of 30 μM) as mentioned below were used instead of the final concentration of 30 μM of Schizandrin B. The result is shown in Table 1.
The cells were harvested and fixed with 70% ice-cooled ethanol after the washing with PBS. PBS containing 0.25% Triton X-100 was added, and the cells were stood on ice for 30 minutes. Cells were centrifuged (500×g, 5 minutes) and replaced to PBS containing 1% bovine serum albumin (BSA) and 1 μg of […] (specifically binding to the phosphorylated histone H3 at 13 Serine), and incubated for 4 hours at room temperature.
After the subsequent washes with PBS containing 1% BSA, goat anti-rabbit IgG antibody conjugated with FITC which diluted with 100 times with PBS containing 1% BSA was added, and incubated for 30 minutes at dark place. These cells were counterstained with PI in accordance with the FACS analysis as mentioned below. The percentage of cells containing phosphorylated histone H3 was measured and evaluated with flowcytometry (Beckman-Coulter).
For orientation: A flow cytometer gives signals particle by particle.

For the next assay, the target named is T1, ATR (Homo sapiens, UniProt Q13535).
T1 construct: made in house; host or cells: 293T cells (ATCC: CRL-11268), transient transfection of pcDNA3.1 plasmid, anti-Flag M2 immunoprecipitate
T1 sequence (Q13535 whole entry A92R): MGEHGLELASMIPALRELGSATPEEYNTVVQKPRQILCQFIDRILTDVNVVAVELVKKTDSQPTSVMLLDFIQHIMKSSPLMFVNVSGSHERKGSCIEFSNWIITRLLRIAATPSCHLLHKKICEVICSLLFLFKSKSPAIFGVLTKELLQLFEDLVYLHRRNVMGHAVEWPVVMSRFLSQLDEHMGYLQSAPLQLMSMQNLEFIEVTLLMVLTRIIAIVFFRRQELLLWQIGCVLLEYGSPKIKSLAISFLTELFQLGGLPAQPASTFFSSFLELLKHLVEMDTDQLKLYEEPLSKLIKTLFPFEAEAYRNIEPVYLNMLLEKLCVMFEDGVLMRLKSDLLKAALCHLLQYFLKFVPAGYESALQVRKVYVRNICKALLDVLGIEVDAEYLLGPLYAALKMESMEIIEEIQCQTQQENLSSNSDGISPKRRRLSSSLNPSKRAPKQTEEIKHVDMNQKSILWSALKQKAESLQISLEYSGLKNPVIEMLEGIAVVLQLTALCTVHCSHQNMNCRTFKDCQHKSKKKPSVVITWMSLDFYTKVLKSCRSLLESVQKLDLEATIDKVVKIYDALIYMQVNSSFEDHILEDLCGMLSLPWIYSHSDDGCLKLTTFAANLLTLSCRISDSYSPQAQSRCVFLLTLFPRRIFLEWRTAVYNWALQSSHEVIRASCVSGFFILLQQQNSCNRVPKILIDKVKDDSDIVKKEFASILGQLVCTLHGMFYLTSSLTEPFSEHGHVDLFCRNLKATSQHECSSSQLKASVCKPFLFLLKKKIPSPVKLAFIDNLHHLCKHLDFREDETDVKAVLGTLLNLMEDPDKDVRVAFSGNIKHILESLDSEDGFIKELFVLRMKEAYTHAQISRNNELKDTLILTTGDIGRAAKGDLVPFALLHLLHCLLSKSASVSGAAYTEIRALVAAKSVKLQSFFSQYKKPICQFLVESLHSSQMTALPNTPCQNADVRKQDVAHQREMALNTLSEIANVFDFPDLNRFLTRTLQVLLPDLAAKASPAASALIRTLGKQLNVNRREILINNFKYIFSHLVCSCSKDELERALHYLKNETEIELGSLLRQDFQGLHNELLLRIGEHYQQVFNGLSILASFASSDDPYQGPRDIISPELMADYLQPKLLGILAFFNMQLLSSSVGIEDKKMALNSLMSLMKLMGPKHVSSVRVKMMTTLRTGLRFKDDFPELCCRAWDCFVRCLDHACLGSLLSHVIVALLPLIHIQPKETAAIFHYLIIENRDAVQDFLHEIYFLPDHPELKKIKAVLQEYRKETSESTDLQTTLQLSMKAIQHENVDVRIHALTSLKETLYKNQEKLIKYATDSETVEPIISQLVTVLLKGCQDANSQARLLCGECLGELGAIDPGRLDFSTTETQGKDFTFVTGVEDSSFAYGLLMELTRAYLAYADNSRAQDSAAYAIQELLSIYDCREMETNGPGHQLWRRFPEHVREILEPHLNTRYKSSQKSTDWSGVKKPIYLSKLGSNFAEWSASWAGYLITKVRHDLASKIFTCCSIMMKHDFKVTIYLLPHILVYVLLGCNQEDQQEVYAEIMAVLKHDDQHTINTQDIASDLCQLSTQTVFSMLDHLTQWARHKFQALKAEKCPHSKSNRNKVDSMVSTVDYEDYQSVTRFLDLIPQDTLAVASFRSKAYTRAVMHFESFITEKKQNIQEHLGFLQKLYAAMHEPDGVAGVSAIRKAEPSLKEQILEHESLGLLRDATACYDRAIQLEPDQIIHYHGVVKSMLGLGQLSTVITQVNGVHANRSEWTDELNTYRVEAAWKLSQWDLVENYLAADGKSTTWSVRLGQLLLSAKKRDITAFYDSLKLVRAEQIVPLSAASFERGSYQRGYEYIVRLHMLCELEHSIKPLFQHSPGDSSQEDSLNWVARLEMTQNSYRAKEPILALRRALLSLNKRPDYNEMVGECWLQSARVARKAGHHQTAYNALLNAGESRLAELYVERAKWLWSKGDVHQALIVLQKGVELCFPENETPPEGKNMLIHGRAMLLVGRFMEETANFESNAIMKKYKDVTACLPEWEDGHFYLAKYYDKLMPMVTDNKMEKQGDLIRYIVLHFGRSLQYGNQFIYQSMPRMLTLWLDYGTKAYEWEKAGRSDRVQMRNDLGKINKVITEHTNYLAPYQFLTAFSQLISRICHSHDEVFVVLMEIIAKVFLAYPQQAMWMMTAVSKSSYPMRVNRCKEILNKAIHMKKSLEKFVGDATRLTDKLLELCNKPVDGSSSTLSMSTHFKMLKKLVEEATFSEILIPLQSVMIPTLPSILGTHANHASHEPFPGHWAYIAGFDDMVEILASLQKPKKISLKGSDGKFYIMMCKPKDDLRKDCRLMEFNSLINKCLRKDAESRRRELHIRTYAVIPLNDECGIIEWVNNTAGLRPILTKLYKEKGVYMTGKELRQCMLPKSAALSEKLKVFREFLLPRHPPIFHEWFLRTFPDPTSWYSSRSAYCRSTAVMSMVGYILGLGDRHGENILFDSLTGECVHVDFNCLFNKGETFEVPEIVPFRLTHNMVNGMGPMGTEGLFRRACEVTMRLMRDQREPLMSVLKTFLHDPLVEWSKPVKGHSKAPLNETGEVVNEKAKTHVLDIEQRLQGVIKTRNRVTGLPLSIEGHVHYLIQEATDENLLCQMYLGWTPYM
The experiment in a line: ATR protein kinase activity (Flag-ATR immunoprecipitate, PHAS-I substrate, 32P-ATP). It is filed as biochemical. To be noted: 300 μM ATP, 20 minutes at 30° C., estimated from lines, read-out: IC50 for the phosphorylating activity of ATR. The method, then: 1 μg of recombinant PHAS-I protein (Alexis Biochemicals) as a substrate, and Schizandrin B were added to mixtures of ATR and ATM for the kinase reaction as prepared in accordance with a Preparation of mixtures of ATR and ATM for kinase reaction as follows. 300 μM of ATP containing a suitable concentration of ^32P-ATP was added to react it for 20 minutes at 30° C. 4 volumes of SDS sample loading buffer (200 mM Tris-HCl (pH 6.8), 400 mM DTT and 8% SDS) were added to the reaction mixture to stop the reaction, and the obtained mixture is applied to 12% SDS-PAGE. After the gel as obtained was dried, […] corresponding to the band of ^32P—PHAS-I in the mixture was evaluated using autoradiography method. In the Figure, (A) and (B) indicate the relative activities of ATR and ATM, respectively, the horizontal axis indicates the concentration of Schizandrin B, and the vertical axis indicates the relative value of the count as obtained in Schizandrin B-treated group to that of no-addition of Schizandrin B group.
IC50s of the compounds for the phosphorylating activity of ATR were estimated based on the lines as obtained in accordance with Embodiment 7-1, except that, in Embodiment 7-1, the compounds of the Formulas (1) to (5) and the compound of the Formula (C) were used instead of Schizandrin B. The values are shown in Table 3.
ATR conjugated with Flag as constructed with conventional method as disclosed in, e.g. Non-Patent-Related Document 9 was used for a mixture of ATR for kinase reaction. In detail, Bam H1H-Swa I fragment of ATR gene (Sequence Number 4) (1 kb) was substituted with a gene having the ATR gene and Flag ([…]) at N terminal and the gene was amplified with PCR. So obtained gene product was introduced into pcDNA3.1, and target product was obtained from the plasmid. In addition, ATM conjugated with Flag as manufactured in accordance with the well-known method as disclosed in e.g. non-patent related documents 10 and 11 and using Quikchange site-Directed Mutagenesis Kit (Stratagene) was used for a mixture of ATM for kinase reaction.
These ATR and ATM plasmids tagged with Flag (Sequence Numbers 4 and 5) were transfected in 293T cells (ATCC: CRL-11268) by Calcium phosphate method as followed. After 2 days, 5 mg of cellular proteins were prepared using IP buffer in accordance with the Preparation of proteins as mentioned below instead of the UTB buffer, and ATR and ATM were immuno-precipitated with 20 μg of anti-Flag M2 monoclonal antibody (Sigma) for 4 hours at […], independently. The precipitates were incubated with beads conjugated with protein G cepharose (Amersham). […]

Assay [1] concerns P-p53 (Ser15) in A549 cells. The experiment in a line: Phosphorylation of p53 at serine 15 in UV-irradiated A549 cells (immunoblot). It is filed as cell-based. As to conditions: Homo sapiens, light or radiation study, 3 h, 30 μM compound, 25 J/m^2 UV, UV irradiation alone = 100%, Control 15.4, read-out: Relative rate of P-p53 (Ser15) band intensity. The method, then:
A549 cells were seeded as 3×10^4 cells/cm^2 in the growth medium on 10 cm dish, incubated for overnight, and Schizandrin B was added in the medium as final concentration of 30 μM in the medium. After 1 hour incubation, the medium was removed, irradiated with 20 J/m^2 of UV, and incubated for 3 hours (hereinafter, referred to as “UV-cell group” with regard to the obtained cells).
It should be noted that both groups of the UV-cell group and IR-cell group were cultured in the presence of 50 μM of N-acetyl-L-Leucyl-L-Leucyl-L-norleucinal (Sigma, Mo., USA) (hereinafter, referred to as “LLnL”) from 15 minutes prior to the irradiation to collection of the cells as mentioned below. Protein in the cells were extracted in accordance with a Preparation of proteins as mentioned below, immunoblot analysis was performed with regard to the phosphorylated p53 at 15 serine (P-p53 (Ser 15)), p53 protein (p53), phosphorylated ATM protein at 1981 serine (P-ATM (Ser1981)) and glyceraldehyde-3-phosphate dehydrogenase (GAPDH) in accordance with an Immunoblot analysis as mentioned below.
The dose-depended effect of Schizandrin B on the phosphorylation of p53 in A549 cells irradiated with UV A549 cells were seeded as 3×10^4 cells/cm^2 in the growth medium on 10 cm dish, incubated for overnight, and Schizandrin B was added in the medium as final concentration of 10, 30 and 100 μM in the medium. After 1 hour incubation, the medium was removed, and the cells were irradiated with 20 J/m^2 of UV. The cells were treated with LLnL as mentioned in Embodiment 4. Then, expression of p53 and phosphorylated p53 at 15 serine (P-p53 (Ser15)) in the cells treated with the same concentration of Schizandrin B as mentioned above was examined.
Expression of phosphorylated p53 at 15 serine (P-p53 (Ser15)) was examined in accordance with Embodiment 5-1, except that, in Embodiment 5-1, compounds of the Formulas (1) to (10) and the compound of the Formula (C) (final concentration of 30 μM) were added in the medium instead of the addition of final concentration of 10, 30 and 100 μM of Schizandrin B in the medium, and 25 J/m^2 of UV was irradiated instead of the 20 J/m^2 of UV irradiation. Electrophoresis image as obtained is shown in FIG. 5-2, and relative ratio of the band intensity corresponding to P-p53 (Ser15) to that of the band as obtained in the irradiation with UV as 100% is shown in Table 2.
50 μg of cellular proteins (as prepared in accordance with the Preparation of proteins as mentioned below) were applied to SDS polyacrylamide gel electrophoresis (12.5%), the electrophored proteins were transferred into the nitrocellulose membrane in accordance with the standard method, and blocking reaction was performed for 1 hour at room temperature using Tris-buffered saline (TBS-T) containing 5% skim milk and 0.1% Triton X-100. So obtained membrane were incubated with the desired adequate antibodies as mentioned below for 16 hours at 4° C., and then incubated with secondary anti-serum (corresponding to the animal originated from the desired antibodies) conjugated with horseradish peroxidase for 1 hour at room temperature. Then, the target proteins were visualized with ECL reaction kit (Amersham) and chemiluminescence film (Amersham) to obtain a protein image.
The cells were harvested with ice-cooled PBS from the culture dish, and were washed twice with cooled PBS. Then, it was centrifuged to obtain cell pellet. The pellet was solubilized with UTB buffer as mentioned below to prepare cellular protein. The content of the proteins was measured with Protein Assay kit (Bio-Rad).
On the technique in general: In western blotting, separated proteins are transferred to a membrane and probed.

A further assay deals with T2, ATM (Homo sapiens, UniProt Q13315).
T2 construct: made in house; host or cells: 293T cells (ATCC: CRL-11268), transient transfection, anti-Flag M2 immunoprecipitate
As to conditions: caffeine, literature; cited from earlier work.

Turning to `C/C=C(\C)C(=O)O[C@@]1(C)Cc2cc(OC)c(OC)c(OC)c2-c2c(cc3c(c2OC)OCO3)C[C@@H]1C` (atropisomer, axis not shown) [AGA, Angeloyl Gomisin A, reference compound], the “Rate of Divided cells” value with A549 cells is 1.04 ± 0.06%. In addition, at ATR, the IC50 (in general, the concentration that gives 50% inhibition) is 111 µM. For the same molecule, in assay [1], the activity at 30 µM came to 92.2%.
As to `COc1cc2c(c(OC)c1OC)-c1c(cc3c(c1OC)OCO3)C[C@H](C)[C@](C)(O)[C@H]2OC(=O)c1ccccc1` (atropisomer, axis not shown) [GC, Gomisin C], in the assay with A549 cells, the “Rate of Divided cells” value is 1.16 ± 0.16%. The activity at 30 µM in assay [1] was 49.8%.
On the same counts, the results for `COc1cc2c(c(OC)c1OC)-c1c(cc(OC)c(OC)c1OC)C[C@](C)(O)[C@@H](C)C2` (atropisomer, axis not shown) [S, Schizandrin] are 0.68 ± 0.04% and 42.7%.
On the same counts, the results for `COc1cc2c(c(OC)c1OC)-c1c(cc3c(c1OC)OCO3)C[C@@H](C)[C@@H](C)C2` (atropisomer, axis not shown) [GN, Gomisin N] are 0.88 ± 0.12% and 38.4%.
Turning to `C/C=C(/C)C(=O)O[C@H]1c2cc(OC)c(OC)c(OC)c2-c2c(cc3c(c2OC)OCO3)C[C@H](C)[C@@]1(C)O` (atropisomer, axis not shown) [GB, Gomisin B], the “Rate of Divided cells” value with A549 cells stood at 0.85 ± 0.12%. The activity at 30 µM in assay [1] was 60.9%.
On the same counts, the results for `COc1cc2c(c(OC)c1OC)-c1c(cc3c(c1OC)OCO3)C[C@H](C)[C@@](C)(O)C2` (atropisomer, axis not shown) [GA, Gomisin A] are 0.90 ± 0.07% and 58.3%.
As to `COc1c2c(cc3c1-c1c(cc4c(c1OC)OCO4)C[C@H](C)[C@H](C)C3)OCO2` (atropisomer, axis not shown) [SchC, Schizandrin C], the “Rate of Divided cells” value in the assay on A549 cells is 0.68 ± 0.11%. In addition, the activity at 30 µM in assay [1] is 42.6%.
For `COc1cc2c(c(O)c1OC)-c1c(cc(OC)c(OC)c1OC)C[C@](C)(O)[C@@H](C)C2` (atropisomer, axis not shown) [GH, Gomisin H], the “Rate of Divided cells” value in the assay on A549 cells was 1.42 ± 0.03%. The IC50 at ATR is 45.7 µM. In assay [1], the activity at 30 µM stood at 50.3%.
In the case of `COc1cc2c(c(OC)c1OC)-c1c(cc3c(c1OC)OCO3)[C@H](OC(=O)c1ccccc1)[C@](C)(O)[C@@H](C)C2` (atropisomer, axis not shown) [GG, Gomisin G], in the assay on A549 cells, the “Rate of Divided cells” value was determined as 1.13 ± 0.05%. Also, the IC50 on ATR was 32 µM. In assay [1], the activity at 30 µM was found to be 51.3%.
`COc1cc2c(c(OC)c1OC)-c1c(cc3c(c1OC)OCO3)C[C@H](C)[C@@](C)(O)[C@H]2OC(=O)c1ccccc1` (atropisomer, axis not shown) [GC, Gomisin C]: the IC50 at ATR was 10.6 µM.
Regarding `Cn1c(=O)c2c(ncn2C)n(C)c1=O` [Caffeine, 3,7-dihydro-1,3,7-trimethyl-1H-purine-2,6-dione], the “IC50 for ATM relative to that of ATR” value at ATM is “⅕”.
